Reference: publication PMC5634478, “Usefulness of kidney slices for functional analysis of apical reabsorptive transporters” (Scientific Reports, 2017)
Like-named read-outs stand apart in the source and are kept apart here. Where a SMILES comes first, the peptide text is derived from it.

Experiments:
Mate1 = conditions: read-out: IC 50 for Mate1; cited from earlier work
Octn1 = target: T1, Octn1 (Mus musculus, UniProt Q9Z306); experiment: Uptake of [3H]ergothioneine by mice kidney slices; assay type: in vitro ADME; conditions: for inhibition of [3H]ergothioneine uptake by kidney slices at low inhibitor concentration: 0.5 mM carnitine, 0.1 mM cimetidine; for effect on Na+-dependent uptake of [3H]ergothioneine into mice kidney slices: Fig. 3A
T1 construct: between native Octn1 in kidney tissues and transporter-gene transfected cells; from tissue; host or cells: mouse kidney slices (0.3 mm; male ICR mice, or C57BL/6J-backcrossed wild-type and Octn1-/- mice)
T1 sequence (Q9Z306 1-553): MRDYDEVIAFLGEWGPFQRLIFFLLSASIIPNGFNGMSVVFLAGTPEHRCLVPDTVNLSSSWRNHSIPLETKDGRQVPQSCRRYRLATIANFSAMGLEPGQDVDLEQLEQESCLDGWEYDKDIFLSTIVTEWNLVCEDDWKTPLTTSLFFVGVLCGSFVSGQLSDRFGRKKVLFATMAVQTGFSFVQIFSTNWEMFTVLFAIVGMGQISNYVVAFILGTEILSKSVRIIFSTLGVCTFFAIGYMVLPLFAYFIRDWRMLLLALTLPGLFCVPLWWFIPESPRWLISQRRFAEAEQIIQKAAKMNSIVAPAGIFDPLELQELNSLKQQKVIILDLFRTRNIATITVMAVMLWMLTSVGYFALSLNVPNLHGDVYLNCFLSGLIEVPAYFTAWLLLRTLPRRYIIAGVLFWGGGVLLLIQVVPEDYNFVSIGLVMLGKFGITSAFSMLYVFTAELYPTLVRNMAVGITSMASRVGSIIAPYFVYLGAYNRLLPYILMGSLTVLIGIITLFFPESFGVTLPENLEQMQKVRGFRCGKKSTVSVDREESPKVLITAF
Description: (§1) Uptake studies using mouse kidney slices were carried out as described in a previous report after slight modifications. The slices of whole kidneys were prepared with a microslicer (Zero 1; Dosaka EM, Kyoto, Japan), and the renal pelvis portion was removed. Prepared slices (0.3 mm thick) of whole kidneys from male mice were immediately put in ice-cold oxygenated transport buffer (130 mM NaCl, 4.8 mM KCl, 1.2 mM CaCl2, 1.2 mM MgSO4, 1.2 mM KH2PO4 and 25 mM HEPES, adjusted to pH 7.4). When uptake was conducted in Na^+-free condition, NaCl was replaced with N-methyl-D-glucamine (NMG) in transport buffer. Three or four slices from one mouse, weighing each slice 2 to 10 mg, were randomly selected and then pre-incubated in a 24-well plate with 1.0 ml of oxygenated transport buffer in each well at 37 °C for 5 min. After pre-incubation, the kidney slices were put into transport buffer containing radiolabeled substrates with or without inhibitors to initiate the uptake reaction. The uptake reactions were carried out at 37 °C for an appropriate time, and then each slice was rapidly removed from the transport buffer, washed twice in ice-cold transport buffer, blotted on filter paper and weighed. For measurement of radiolabeled compounds, the slices were dissolved in 0.15 ml of 1 N NaOH. Then, the lysate was neutralized with HCl. The apparent uptake of [^14C]inulin was evaluated in independent experiments (n = 3) to estimate the volume of water adhering to the kidney slices after an incubation. […] Viability of the isolated kidney slices was assessed as described in the supplemental file.
Radioactivity was quantified with a liquid scintillation counter (Aloka, Tokyo, Japan). To calculate kinetic parameters for carrier-mediated uptake of test substrates, uptake rate was fitted to eq. (1) by means of a nonlinear least-squares regression analysis using MULTI program[36]:1 v=Vmax×s/(Km+s) where v, s, K m, and V max are the uptake rate of substrate, the substrate concentration in the medium, the apparent Michaelis-Menten constant, and the maximal uptake rate, respectively.
(§2) The half-inhibitory concentration (IC 50) values of inhibitors were obtained by examining their inhibitory effects on uptake of test substrates according to the following equation (2):2 %ofcontrol=IC50/(IC50+I) where % of control represents inhibition rate in the presence of inhibitors and I is inhibitor concentration.

Oct2 = conditions: read-out: IC 50 for Oct2; cited from earlier work
Mouse Octn1 = Mouse Octn1 (Mus musculus, UniProt Q9Z306); conditions: Octn1-expressing HEK293 cells, previous report, cited from earlier work
Pept1/2 = experiment: Uptake of [3H]Gly-Sar by mice kidney slices; assay type: in vitro ADME; conditions: for effect on uptake of [3H]Gly-Sar by mice kidney slices: 5 mM Gly-Leu, 100 μM cephadroxil, 37 °C
Description: Uptake studies using mouse kidney slices were carried out as described in a previous report after slight modifications. The slices of whole kidneys were prepared with a microslicer (Zero 1; Dosaka EM, Kyoto, Japan), and the renal pelvis portion was removed. Prepared slices (0.3 mm thick) of whole kidneys from male mice were immediately put in ice-cold oxygenated transport buffer (130 mM NaCl, 4.8 mM KCl, 1.2 mM CaCl2, 1.2 mM MgSO4, 1.2 mM KH2PO4 and 25 mM HEPES, adjusted to pH 7.4). When uptake was conducted in Na^+-free condition, NaCl was replaced with N-methyl-D-glucamine (NMG) in transport buffer. Three or four slices from one mouse, weighing each slice 2 to 10 mg, were randomly selected and then pre-incubated in a 24-well plate with 1.0 ml of oxygenated transport buffer in each well at 37 °C for 5 min. After pre-incubation, the kidney slices were put into transport buffer containing radiolabeled substrates with or without inhibitors to initiate the uptake reaction. The uptake reactions were carried out at 37 °C for an appropriate time, and then each slice was rapidly removed from the transport buffer, washed twice in ice-cold transport buffer, blotted on filter paper and weighed. For measurement of radiolabeled compounds, the slices were dissolved in 0.15 ml of 1 N NaOH. Then, the lysate was neutralized with HCl. The apparent uptake of [^14C]inulin was evaluated in independent experiments (n = 3) to estimate the volume of water adhering to the kidney slices after an incubation. In this study, observed extracellular adhered water space was 0.128 ± 0.004 μL/5 min/mg kidney. Viability of the isolated kidney slices was assessed as described in the supplemental file.
Radioactivity was quantified with a liquid scintillation counter (Aloka, Tokyo, Japan). To calculate kinetic parameters for carrier-mediated uptake of test substrates, uptake rate was fitted to eq. […]

PEPT2 = test system: PEPT2; parameters: method as in PMID 15862787; conditions: cited from earlier work
PEPT1 = test system: PEPT1; parameters: method as in PMID 11004485; conditions: cited from earlier work
Sglt2 = test system: Sglt2; parameters: method as in PMID 22139434; conditions: cited from earlier work
Octn2 = target: T2, Octn2 (Mus musculus, UniProt Q9Z0E8); experiment: Uptake of [3H]carnitine by mice kidney slices; assay type: in vitro ADME
T2 construct: from tissue; host or cells: mouse kidney slices (male ICR mice)
T2 sequence (Q9Z0E8 1-557): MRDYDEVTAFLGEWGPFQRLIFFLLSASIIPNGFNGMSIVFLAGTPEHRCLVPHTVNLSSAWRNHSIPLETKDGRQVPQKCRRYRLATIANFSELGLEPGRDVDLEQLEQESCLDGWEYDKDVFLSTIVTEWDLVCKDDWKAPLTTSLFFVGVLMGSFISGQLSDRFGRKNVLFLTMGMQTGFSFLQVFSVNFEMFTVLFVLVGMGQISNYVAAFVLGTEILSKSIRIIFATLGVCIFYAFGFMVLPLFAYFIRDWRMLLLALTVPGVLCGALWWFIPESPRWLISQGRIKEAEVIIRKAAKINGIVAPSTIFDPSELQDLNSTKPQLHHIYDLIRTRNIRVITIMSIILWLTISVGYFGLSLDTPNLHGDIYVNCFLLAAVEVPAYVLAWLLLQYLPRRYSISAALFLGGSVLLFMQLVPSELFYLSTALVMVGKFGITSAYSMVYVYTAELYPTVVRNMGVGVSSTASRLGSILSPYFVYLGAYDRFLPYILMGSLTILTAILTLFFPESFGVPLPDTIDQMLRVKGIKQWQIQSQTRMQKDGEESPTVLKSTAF
Description: as §1, with “The uptake reactions were carried out at 37 °C for an appropriate time, and then each slice was rapidly removed from the transport buffer, washed twice in ice-cold transport buffer, blotted on filter paper and weighed. For measurement of radiolabeled compounds, the slices were dissolved in 0.15 ml of 1 N NaOH. Then, the lysate was neutralized with HCl.” left out, “file. […]” for “file.”

Mouse Octn2 [1] = target: T3, Mouse Octn2 (Mus musculus, UniProt Q9Z0E8); experiment: Uptake of [3H]carnitine by Octn2-expressing HEK293 cells; assay type: cell-based; conditions: [3H]carnitine 1.0 μM, 15 sec, mock subtracted, read-out: IC 50 for carnitine uptake, Expression Model
T3 construct: expressed in transfected cells; host or cells: HEK293
T3 sequence (Q9Z0E8 1-557): T2 sequence (Q9Z0E8 1-557)

Mouse Octn2 [2] = target: T3, Mouse Octn2; parameters: method as in PMID 11010964; conditions: cited from earlier work
Sglt1/2 = experiment: Uptake of [14C]αMG by mice kidney slices; assay type: in vitro ADME; conditions: for effect on [14C]αMG uptake by kidney slices, inhibitor alone: 30 mM galactose, D-glucose free
Description: as §1, §2

[3] = [3H]ergothioneine 1.0 μM, 3 min

Structure (SMILES): CN/C(=N/CCSCc1nc[nH]c1C)NC#N [Cimetidine]
- IC50 (Mate1): 16.3 µM
- inhibition of [3H]ergothioneine uptake by kidney slices at low inhibitor concentration (Octn1): no significant inhibition
- effect on Na+-dependent uptake of [3H]ergothioneine into mice kidney slices (Octn1; [3]): significantly reduced
- IC50 (Oct2): 8 µM

Structure (SMILES): C[N+](C)(C)[C@@H](Cc1c[nH]c(=S)[nH]1)C(=O)[O-] [Ergothioneine, ergothioneine]
- K m of ergothioneine, Expression Model (Mouse Octn1): 4.68[22] µM
- K m of ergothioneine, Expression Model (Mouse Octn1; listed as ergothioneine): 4.68 µM
- K m in kidney slices relative to K m in Octn1-expressing HEK293 cells (Octn1; 81.5 μM versus 4.68 μM): 17 times
- uptake in the presence of Na+ versus absence of Na+ (Octn1; [3H]ergothioneine 1.0 μM, pH 7.4, 37 °C, 1-20 min): significantly higher
- K m of ergothioneine uptake, Mice Kidney Slice (Octn1; pH 7.4, 37 °C, 3 min, 1-250 μM): 69.8 ± 27.6 µM
- uptake of [3H]ergothioneine in 1 hr after removal of kidney compared with 25 min (Octn1; slice viability, pre-incubation pH 7.4, 37 °C): 69.0 ± 6.6%

Structure (SMILES): CC(C)CC(NC(=O)CN)C(=O)O (stereo not shown) [Gly-Leu, glycyl-leucine]
- effect on uptake of [3H]Gly-Sar by mice kidney slices (Pept1/2): decreased

Structure (SMILES): CN(CC(=O)O)C(=O)CN [Gly-Sar, glycylsarcosine] (HELM PEPTIDE1{G.[Sar]}$$$$V2.0)
- K m of Gly-Sar, Expression Model (PEPT2) (PEPT2): 79.5 (PEPT2)[31] µM
- K m of Gly-Sar, Expression Model (PEPT2) (PEPT2; listed as [^3H]Gly-Sar): 79.5 µM
- K m of Gly-Sar uptake, Mice Kidney Slice (Pept1/2; pH 7.4, 37 °C, 5 min, 10-300 μM): 161 ± 17 µM
- K m of Gly-Sar, Expression Model (PEPT1) (PEPT1): 600 (PEPT1)[37] µM

Structure (SMILES): COc1ccc(CCN(C)CCCC(C#N)(c2ccc(OC)c(OC)c2)C(C)C)cc1OC (stereo not shown) [Verapamil]
- IC50 (Octn2): 363 ± 142 µM
- IC50 (Mouse Octn2 [1]): 94.1 ± 8.9 µM

Structure (SMILES): C[N+](C)(C)CC(O)CC(=O)[O-] (stereo not shown) [carnitine]
- uptake in the presence of Na+ versus absence of Na+ (Octn2; [3H]carnitine 1.3 nM, pH 7.4, 37 °C, 1-20 min): significantly higher
- inhibition of [3H]ergothioneine uptake by kidney slices at low inhibitor concentration (Octn1): no significant inhibition
- effect on Na+-dependent uptake of [3H]ergothioneine into mice kidney slices (Octn1; [3]): significantly reduced
- K m value of carnitine for Octn2 (Mouse Octn2 [2]): 22.1 µM

Structure (SMILES): CC1=C(C(=O)O)N2C(=O)[C@@H](NC(=O)[C@H](N)c3ccc(O)cc3)[C@H]2SC1 [cephadroxil]
- effect on uptake of [3H]Gly-Sar by mice kidney slices (Pept1/2): decreased

Structure (SMILES): CCOc1ccc(Cc2cc([C@@H]3O[C@H](CO)[C@@H](O)[C@H](O)[C@H]3O)ccc2Cl)cc1 [dapagliflozin]
- effect on [14C]αMG uptake with 30 mM galactose or 1 mM D-glucose simultaneously added (Sglt1/2; 50 nM dapagliflozin, 5 min): decreased
- effect on αMG uptake in the presence of 10 mM D-glucose (Sglt1/2; 10 mM D-glucose, Sglt1 and Sglt2 saturated): no further decrease
- effect on [14C]αMG uptake by kidney slices, inhibitor alone (Sglt1/2; 50 nM dapagliflozin, 5 min): not affected

Structure (SMILES): O=C[C@H](O)[C@@H](O)[C@@H](O)[C@H](O)CO [galactose, D-galactose]
- effect on [14C]αMG uptake by kidney slices, inhibitor alone (Sglt1/2; 50 nM dapagliflozin, 5 min): decreased
